Results from patent publication US8309769B2, “Crystalline forms of 2-[2-chloro-4-methylsulfony1-3-(2,2,2-trifluoroethoxymethyl)benzoyl]cyclohexan-1,3-dione” (BASF SE, priority 2007, dated 2012).

Type: physicochemical
Protocol: The form in question or mixtures of different forms of tembotrione were suspended in a mixture of methanol with water (volume ratio methanol:water 1:9) at temperatures in the range from 10 to 30° C., and the temperature varied cyclically at a rate of 0.33 K min^−1.

## CS(=O)(=O)c1ccc(C(=O)C2C(=O)CCCC2=O)c(Cl)c1COCC(F)(F)F [form A, 2-[2-chloro-4-methylsulfonyl-3-(2,2,2-trifluoro-ethoxymethyl)benzoyl]cyclohexan-1,3-dione]
  stability against phase change: modification found after 8 days: unchanged

## CS(=O)(=O)c1ccc(C(=O)C2C(=O)CCCC2=O)c(Cl)c1COCC(F)(F)F [form B, 2-[2-chloro-4-methylsulfonyl-3-(2,2,2-trifluoro-ethoxymethyl)benzoyl]cyclohexan-1,3-dione]
  stability against phase change: modification found after 3 days: converted completely into modification C

## CS(=O)(=O)c1ccc(C(=O)C2C(=O)CCCC2=O)c(Cl)c1COCC(F)(F)F [mixture of forms A, B and C, 2-[2-chloro-4-methylsulfonyl-3-(2,2,2-trifluoro-ethoxymethyl)benzoyl]cyclohexan-1,3-dione]
  stability against phase change: modification found after 2 days: converted into form A
